In patent US5985908A, “MCBI analogs of CC-1065 and the duocarmycins” (The Scripps Research Institute, priority 1998, dated 1999):
Entries after “also recorded” stand apart in the source; their conditions may differ.

How the values were obtained:
[1] = pH 3; cited from earlier work
L1210 = experiment: In vitro cytotoxic activity; assay type: cell-based; details: for cytotoxic potency of natural enantiomer relative to unnatural enantiomer: fold, natural more potent than unnatural; for enantiomer distinction (in words): natural vs unnatural enantiomer; for cytotoxic activity of seco precursor vs cyclopropane containing agent: seco precursors
[2] = system: duplex DNA (w794, w836, c988, c820); experiment: DNA alkylation selectivity within four 150 base-pair segments of duplex DNA; assay type: biochemical, SV40
Excerpt: (§1) The DNA alkylation properties of the agents were examined within four 150 base-pair segments of duplex DNA for which comparative results are available for related agents. Four clones of phage M13mp10 were selected for study and contain the SV40 nucleosomal DNA inserts w794 (nucleotide no. 5238-138) and its complement w836 (nucleotide no. 5189-91) and c988 (nucleotide no. 4359-4210) and its complement c820 (nucleotide no. 4201-4356). The alkylation site identification and the assessment of the relative selectivity among the available sites were obtained by thermally-induced strand cleavage of the singly 5'end-labeled duplex DNA after exposure to the agents. Following treatment of the end-labeled duplex DNA with a range of agent concentrations, the unbound agent was removed by EtOH precipitation of the DNA. Redissolution of the DNA in aqueous buffer, thermolysis (100° C., 30 minutes) to induce strand cleavage at the sites of DNA alkylation, denaturing high resolution polyacrylamide gel electrophoresis (PAGE) adjacent to Sanger dideoxynucleotide sequencing standards, and autoradiography led to identification of the DNA cleavage and alkylation sites. The full details of this procedure have been disclosed and discussed elsewhere (10). The DNA alkylation reaction selectivities observed under the incubation conditions of 25° C. (24 hours) for the agents detailed herein have proven identical to the alkylation selectivities observed with shorter or extended reaction periods or when the reactions were conducted at different temperatures (37 or 4° C., 0.5-7 days). As discussed below, the rates and efficiencies but not final relative efficiencies of DNA alkylation were altered by changing the reaction temperatures.

[3] = system: w794 DNA (SV40 DNA fragment, 144 bp); experiment: DNA alkylation, thermally-induced strand cleavage of w794 DNA; assay type: biochemical; details: for concentration of detectable DNA alkylation, natural enantiomers: w794, 25° C., 24 hours (FIG. 17); for selectivity and efficiency of DNA alkylation, unnatural enantiomers compared: 72 hours, pairwise comparison; for concentration of detectable DNA alkylation, unnatural enantiomers: w794, 37° C., 72 hours (FIG. 13); for selectivity and efficiency of DNA alkylation, natural enantiomers compared: 25° C., 24 hours, 254 vs 2, 266 vs 1
Protocol: FIG. 13 illustrates thermally-induced strand cleavage of double-stranded DNA (SV40 DNA fragment, 144 bp, nucleotide no. 5238-138, clone w794) after 72 hours incubation of agent-DNA at 37° C. followed by removal of unbound agent and 30 minutes incubation at 100° C.; 8% denaturing PAGE and autoradiography. Lane 1, control DNA; lanes 2-4, (-)-MCBI-TMI (254, 1×10^-5 to 1×10^-7 M); lanes 5-7, (-)-duocarmycin SA (2, 1×10^-5 to 1×10^-7 M); lanes 8-11, Sanger G, C, A and T reactions; lanes 12-14, (-)-CC-1065 (1, 1×10^-5 to 1×10^-7 M); lanes 15-17, (-)-MCBI-CDPI2 (266, 1×10^-5 to 1×10^-7 M); lanes 18-20, (-)-MCBI-CDPI1 (262, 1×10^-5 to 1×10^-7 M); lanes 21-23 (-)-MCBI-indole2 (258, 1×10^-5 to 1×10^-7 M).
As indicated, the DNA-agent incubation was conducted at 37° C. for 24 or 48 hours, followed by removal of unbound agent and 30 minutes incubation at 100° C.; 8% denaturing PAGE and autoradiography.
FIG. 17 illustrates thermally-induced strand cleavage of double-stranded DNA (SV40 DNA fragment, 144 bp, nucleotide no. 5238-138, clone w794) after 24 hours incubation of agent-DNA at 25° C. followed by removal of unbound agent and 30 minutes incubation at 100° C; 8% denaturing PAGE and autoradiography. Lane 1, control DNA; lanes 2-4, (+)-duocarmycin SA (2, 1×10^-5 to 1×10^-7 M); lanes 5-7, (+)-MCBI-TMI (254, 1×10^-5 to 1×10^-7 M); lanes 8-11, Sanger G, C, A and T reactions; lanes 12-14, (+)-CC-1065 (1, 1×10^-5 to 1×10^-7 M); lanes 15-17, (+)-MCBI-indole2 (258, 1×10^-5 to 1×10^-7 M); lanes 18-20, (+)-MCBI-CDPI2 (266, 1×10^-5 to 1×10^-7 M).
as §1

[4] = Solvolysis reactivity (UV), aqueous buffer-CH3OH; assay type: physicochemical
Protocol: The solvolysis was followed spectrophotometrically by UV with the disappearance of the long-wavelength absorption band of the MCBI chromophore ([…]) and with the appearance of a short-wavelength absorption band (266 nm) attributable to seco-N-BOC-MCBI (FIG. 9).
N-BOC-MCBI (238, 0.1 mg) was dissolved in CH3 OH (1.5 mL) and mixed with pH 3 aqueous buffer (1.5 mL). The buffer contained 4:1:20 (v:v:v) 0.1 M citric acid, 0.2 M Na2 HPO4, and H2 O, respectively. The solvolysis solution was sealed and kept at 25° C. protected from light. The UV spectrum was measured at regular intervals every 2 hours during the first day, every 12 hours for another week, and every 24 hours for an additional week. The decrease in the long-wavelength absorption at 324 nm and the increase in the short-wavelength absorption at 266 nm were monitored, FIG. 1.
Similarly, MCBI (240, 0.1 mg) was dissolved in CH3 OH (1.5 mL) and mixed with […] (1.5 mL). The solvolysis solution was sealed and stirred at 25° C. in the dark. The UV spectrum was recorded every 24 hours for two months. The decrease in the long-wavelength absorption at 340 nm and the increase in absorption at 268 nm were monitored, FIG. 1.

## O=C1C=C2NCC3CC23c2ccccc21 (stereo not shown) [CBI, 1,2,9,9a-tetrahydrocyclopropa[c]benz[e]indol-4-one]
[1]
  solvolysis half-life t1/2 of comparison agents: 38.8 days
  solvolysis rate constant k of comparison agents: 2.07e-07 s⁻¹

## COc1ccc2c(c1)C13CC1CN(C(=O)c1cc4c5c(ccc4[nH]1)N(C(N)=O)CC5)C3=CC2=O (stereo not shown) [Compound 262]
L1210
  cytotoxic potency of natural enantiomer relative to unnatural enantiomer: 1-3 ×
  enantiomer distinction (in words): essentially indistinguishable
L1210; listed as MCBI-CDPI1
  enantiomer distinction (in words): nearly equipotent
[2]
  AT-rich alkylation selectivity, size of site, natural enantiomers: 3.5 base-pair

## COc1ccc2c(c1)[C@@]13C[C@@H]1CN(C(=O)c1cc4cc(NC(=O)c5cc6ccccc6[nH]5)ccc4[nH]1)C3=CC2=O [(+)-MCBI-indole2]
[3]
  concentration of detectable DNA alkylation, natural enantiomers: 10^-7 M

## COc1ccc2c(c1)[C@]13C[C@H]1CN(C(=O)c1cc4cc(OC)c(OC)c(OC)c4[nH]1)C3=CC2=O [(-)-MCBI-TMI]
[3]; 37° C.
  selectivity and efficiency of DNA alkylation, unnatural enantiomers compared: nearly indistinguishable

## Cc1c[nH]c2c1C13CC1CN(C(=O)OC(C)(C)C)C3=CC2=O (stereo not shown) [N-BOC-CPI]
[1]
  solvolysis half-life t1/2 of comparison agents: 1.53 days

## COc1ccc2c(O)cc3c(c2c1)C(CCl)CN3C(=O)c1cc2c3c(ccc2[nH]1)N(C(N)=O)CC3 (stereo not shown) [Compound 260]
L1210
  cytotoxic activity of seco precursor vs cyclopropane containing agent: indistinguishable

## COc1ccc2c(c1)[C@]13C[C@H]1CN(C(=O)c1cc4c5c(ccc4[nH]1)N(C(N)=O)CC5)C3=CC2=O [(-)-MCBI-CDPI1]
[3]; 37° C.
  selectivity and efficiency of DNA alkylation, unnatural enantiomers compared: nearly indistinguishable

## COc1ccc2c(c1)C13CC1CN(C(=O)c1cc4cc(NC(=O)c5cc6ccccc6[nH]5)ccc4[nH]1)C3=CC2=O (stereo not shown) [Compound 258]
L1210
  cytotoxic potency of natural enantiomer relative to unnatural enantiomer: 1-3 ×
  enantiomer distinction (in words): nearly equipotent
[3]
  concentration of detectable DNA alkylation, unnatural enantiomers: 10^-6 to 10^-7 M

## COc1ccc2c(O)cc3c(c2c1)C(CCl)CN3C(=O)OC(C)(C)C (stereo not shown) [Compound 236, 3-(tert-Butyloxycarbonyl)-1-(chloromethyl)-5-hydroxy-8-methoxy-1,2-dihydro-3H-benz[e]indole]
L1210
  cytotoxic activity of seco precursor vs cyclopropane containing agent: indistinguishable

## COc1ccc2c(c1)[C@]13C[C@H]1CN(C(=O)c1cc4c5c(ccc4[nH]1)N(C(=O)c1cc4c6c(ccc4[nH]1)N(C(N)=O)CC6)CC5)C3=CC2=O [(-)-MCBI-CDPI2]
[3]; 37° C.
  selectivity and efficiency of DNA alkylation, unnatural enantiomers compared: nearly indistinguishable

## COc1ccc2c(O)cc3c(c2c1)C(CCl)CN3C(=O)c1cc2cc(NC(=O)c3cc4ccccc4[nH]3)ccc2[nH]1 (stereo not shown) [Compound 256]
L1210
  cytotoxic activity of seco precursor vs cyclopropane containing agent: indistinguishable

## COc1c(O)c2c(c3cc(C(=O)N4CCc5c4c(O)c(OC)c4[nH]c(C(=O)N6C[C@H]7C[C@@]78C6=CC(=O)c6[nH]cc(C)c68)cc54)[nH]c13)CCN2C(N)=O [(+)-CC-1065, reference compound]
[3]
  selectivity and efficiency of DNA alkylation, natural enantiomers compared: essentially indistinguishable
  concentration of detectable DNA alkylation, natural enantiomers: 10^-7 M
[2]
  AT-rich alkylation selectivity, size of site, natural enantiomers: 5 base-pair

## COc1ccc2c(c1)C13CC1CNC3=CC2=O (stereo not shown) [Compound 240, 7-Methoxy-1,2,9,9a-tetrahydrocyclopropa[c]benz[e]indol-4-one]
[4]; acid-catalyzed solvolysis, pH 3
  acceleration of rate of solvolysis by C7 methoxy group vs. corresponding CBI agent: 1.6 ×
[4]; pH 3, 50% CH3OH-buffer, 25° C.
  solvolysis rate constant k: 5.76e-07 s⁻¹
[4]; pH 3, 50% CH3OH-buffer, 25° C., read-out: solvolysis half-life t1/2 (converted)
  half-life: 13.9 days
[4]; pH 3, more reactive than DSA
  solvolysis reactivity relative to DSA: 6-7 ×
[4]; pH 3, vs. agent named
  relative solvolysis reactivity (in words): only slightly more reactive than CBI; also recorded: less reactive than CPI

## COc1c(O)c2c(c3cc(C(=O)N4CCc5c4c(O)c(OC)c4[nH]c(C(=O)N6CC7CC78C6=CC(=O)c6[nH]cc(C)c68)cc54)[nH]c13)CCN2C(N)=O (stereo not drawn) [ent-(-)-CC-1065, reference compound]
[3]; 37° C.
  selectivity and efficiency of DNA alkylation, unnatural enantiomers compared: nearly indistinguishable

## COc1ccc2c(c1)[C@]13C[C@H]1CN(C(=O)c1cc4cc(NC(=O)c5cc6ccccc6[nH]5)ccc4[nH]1)C3=CC2=O [(-)-MCBI-indole2]
[3]; 37° C.
  selectivity and efficiency of DNA alkylation, unnatural enantiomers compared: nearly indistinguishable

## COc1ccc2c(c1)[C@@]13C[C@@H]1CN(C(=O)c1cc4c5c(ccc4[nH]1)N(C(=O)c1cc4c6c(ccc4[nH]1)N(C(N)=O)CC6)CC5)C3=CC2=O [(+)-MCBI-CDPI2]
[3]
  selectivity and efficiency of DNA alkylation, natural enantiomers compared: essentially indistinguishable
  concentration of detectable DNA alkylation, natural enantiomers: 10^-7 M

## NC(=O)N1CCc2c1ccc1[nH]c(C(=O)N3CCc4c3ccc3[nH]c(C(=O)N5CC6CC67C5=CC(=O)c5ccccc57)cc43)cc21 (stereo not shown) [CBI-CDPI2, reference compound]
L1210
  enantiomer distinction (in words): comparable potencies

## COc1ccc2c(c1)[C@@]13C[C@@H]1CN(C(=O)OC(C)(C)C)C3=CC2=O [(+)-N-BOC-MCBI, N-(tert-Butyloxycarbonyl)-7-methoxy-1,2,9,9a-tetrahydrocyclopropa[c]benz[e]indol-4-one]
L1210
  enantiomer distinction (in words): more potent activity
[3]; (+)-N-BOC-MCBI/ent-(-)-N-BOC-MCBI, 37° C.
  relative efficiency of DNA alkylation, natural/unnatural enantiomer: 1-2 ×

## COc1ccc2c(O)cc3c(c2c1)C(CCl)CN3C(=O)c1cc2cc(OC)c(OC)c(OC)c2[nH]1 (stereo not shown) [Compound 252]
L1210
  cytotoxic activity of seco precursor vs cyclopropane containing agent: indistinguishable

## COc1ccc2c(O)cc3c(c2c1)C(CCl)CN3C(=O)c1cc2c3c(ccc2[nH]1)N(C(=O)c1cc2c4c(ccc2[nH]1)N(C(N)=O)CC4)CC3 (stereo not shown) [Compound 264]
L1210
  cytotoxic activity of seco precursor vs cyclopropane containing agent: indistinguishable

## CC(C)(C)OC(=O)N1CC2CC23C1=CC(=O)c1ccccc13 (stereo not shown) [N-BOC-CBI]
[1]
  solvolysis half-life t1/2 of comparison agents: 5.54 days

## COc1ccc2c(c1)C13CC1CN(C(=O)c1cc4c5c(ccc4[nH]1)N(C(=O)c1cc4c6c(ccc4[nH]1)N(C(N)=O)CC6)CC5)C3=CC2=O (stereo not shown) [Compound 266]
L1210
  cytotoxic potency of natural enantiomer relative to unnatural enantiomer: 1-3 ×
  enantiomer distinction (in words): essentially indistinguishable
L1210; listed as MCBI-CDPI2
  enantiomer distinction (in words): nearly equipotent
[3]
  concentration of detectable DNA alkylation, unnatural enantiomers: 10^-6 to 10^-7 M

## COC(=O)c1cc2c([nH]1)C(=O)C=C1N(C(=O)c3cc4cc(OC)c(OC)c(OC)c4[nH]3)CC3CC123 (single isomer, unassigned) [ent-(-)-duocarmycin SA, reference compound]
[3]; 37° C.
  selectivity and efficiency of DNA alkylation, unnatural enantiomers compared: slightly more effective
